Reference: publication PMC9465256, “Discovering monoacylglycerol lipase inhibitors by a combination of fluorogenic substrate assay and activity-based protein profiling” (Frontiers in Pharmacology, 2022)
Where a name gives a salt, the structure may show the parent alone.

How the values were obtained:
Assay type in all cases: biochemical
human ABHD6 = molecular target: T1, human ABHD6 (Homo sapiens, UniProt Q9BV23); test: ABHD6 activity assay (AA-HNA fluorogenic substrate); details: for activity at 100 µM / activity: AA-HNA substrate assay, Supplementary Table 2, read-out: ABHD6 Inhibition (%), 100 µM
T1 construct: expressed in transfected cells; host or cells: HEK293T (transient transfection; membrane fraction)
T1 sequence (Q9BV23 1-337): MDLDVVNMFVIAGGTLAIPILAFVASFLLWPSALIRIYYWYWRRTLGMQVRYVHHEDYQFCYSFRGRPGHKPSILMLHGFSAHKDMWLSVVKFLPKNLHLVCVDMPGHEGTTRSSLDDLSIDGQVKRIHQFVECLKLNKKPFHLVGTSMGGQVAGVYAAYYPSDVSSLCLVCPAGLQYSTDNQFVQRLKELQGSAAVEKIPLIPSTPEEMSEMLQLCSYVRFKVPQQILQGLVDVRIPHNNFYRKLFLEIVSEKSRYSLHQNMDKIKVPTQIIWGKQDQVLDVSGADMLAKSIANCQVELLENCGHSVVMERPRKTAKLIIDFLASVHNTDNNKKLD
Description: (§1) HEK293T cells were cultured at 37°C under 5% CO2 in a DMEM medium with stable glutamine and phenolred, containing 10% fetal bovine serum (FBS, Gibco), penicillin, and streptomycin. The cells were passaged every 2–3 days by resuspension in the medium at ∼90% confluence. The membranes used in this study were prepared from transiently transfected HEK293T cells. Briefly, 1 day prior to transfection, ∼10^7 cells were seeded in 15 cm plates, and then the cells were transfected by the addition of a mixture of polyethyleneimine and plasmid DNA (3:1, 60, and 20 µg) in 2 ml of medium (without serum). Of note, the empty pcDNA3.1 vector was used in the Mock-control. After 24 h, the medium was removed and the cells were refreshed with fresh medium. After 72 h, the cells were harvested by suspending in 20 ml of medium, and the supernatant was removed by centrifugation for 10 min at 1,000 rpm. The cell pellet was flash frozen in liquid nitrogen and stored at −80°C until use. Subsequently, the cell pellets were suspended in lysis buffer (30 mM Tirs, pH 7.5, 1 mM MgCl2, 25 U/ml Benzonase), which was homogenized by sonication (3 × 10 bursts) and incubated for 30 min on ice. The membrane fractions overexpressing MAGL/ABHD6/ABHD12 were separated by ultracentrifuge (100,000 g, 30 min, 4 C). The protein concentration was determined with a Qubit protein assay (Invitrogen). The protein samples were quickly frozen in liquid nitrogen and stored at −80 C until use.
The MAGL activity assay is based on the hydrolysis of 2-arachidonoylglycerol-based fluorogenic substrate by MAGL-overexpressing membrane preparations from transiently transfected HEK293T cells. In brief, the reactions were performed in HEPES buffer (40 mM HEPES, pH 7.5, 0.1 mg/ml BSA) in black, flat bottom 96-well plates. The final protein concentration of membrane fractions from overexpressing human MAGL HEK293T cells was 12.5 μg/ml 5 µl of inhibitors were added from×40 concentrated DMSO stocks in the 96-well plate containing 145 µl assay buffer, followed by the addition of 40 µl of the protein (12.5 μg/ml). After the incubation of the inhibitor-protein complex for 30 min, 10 µl of the fluorogenic substrate (AA-HNA, 200 µM) was added and fluorescence was measured in 1 min intervals for 30 min on a plate reader (BioTek). Final assay concentrations: 12.5 μg/ml MAGL, […], and […] in the total volume of 200 µl. All the measurements were performed in N = 2, n = 2 for inhibitors and N = 2, n = 4 for controls with Z′ value ≥0.6. The slope is determined in 5–15 min for all the experiments.
The ABHD6 activity assay is based on the same principle as the MAGL activity assay described earlier, but with human ABHD6 overexpressing membrane preparations at a final protein concentration of 50 μg/ml and 200 µM AA-HNA. Other conditions are the same as those of the MAGL activity assay.

human MAGL = molecular target: T2, human MAGL (Homo sapiens, UniProt Q99685); test: MAGL activity assay (AA-HNA fluorogenic substrate); details: 100 µM, AA-HNA substrate assay, Supplementary Table 1; read-out: MAGL Inhibition (%)
T2 construct: expressed in transfected cells; host or cells: HEK293T (transient transfection; membrane fraction)
T2 sequence (Q99685 1-303): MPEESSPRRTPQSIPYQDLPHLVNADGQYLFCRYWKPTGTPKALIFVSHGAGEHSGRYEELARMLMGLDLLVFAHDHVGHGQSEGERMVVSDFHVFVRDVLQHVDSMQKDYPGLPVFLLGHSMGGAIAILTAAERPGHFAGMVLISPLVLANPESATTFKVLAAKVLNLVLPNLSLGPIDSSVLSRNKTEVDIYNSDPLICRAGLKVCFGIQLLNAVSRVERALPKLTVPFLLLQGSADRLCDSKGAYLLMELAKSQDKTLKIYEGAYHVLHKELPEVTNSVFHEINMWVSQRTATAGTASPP
Description: as §1
The MAGL activity assay is based on the hydrolysis of 2-arachidonoylglycerol-based fluorogenic substrate by MAGL-overexpressing membrane preparations from transiently transfected HEK293T cells. In brief, the reactions were performed in HEPES buffer (40 mM HEPES, pH 7.5, 0.1 mg/ml BSA) in black, flat bottom 96-well plates. […] After the incubation of the inhibitor-protein complex for 30 min, 10 µl of the fluorogenic substrate (AA-HNA, 200 µM) was added and fluorescence was measured in 1 min intervals for 30 min on a plate reader (BioTek). […] All the measurements were performed in N = 2, n = 2 for inhibitors and N = 2, n = 4 for controls with Z′ value ≥0.6. The slope is determined in 5–15 min for all the experiments.

human ABHD12 = molecular target: T3, human ABHD12 (Homo sapiens, UniProt Q8N2K0); test: ABHD12 activity by competitive ABPP with FP-TAMRA; details: 100 µM compound; competitive ABPP with probe FP-TAMRA (250 nM); read-out: ABHD12 Inhibition (%)
T3 construct: expressed in transfected cells; host or cells: HEK293T (transient transfection; membrane fraction)
T3 sequence (Q8N2K0 1-398): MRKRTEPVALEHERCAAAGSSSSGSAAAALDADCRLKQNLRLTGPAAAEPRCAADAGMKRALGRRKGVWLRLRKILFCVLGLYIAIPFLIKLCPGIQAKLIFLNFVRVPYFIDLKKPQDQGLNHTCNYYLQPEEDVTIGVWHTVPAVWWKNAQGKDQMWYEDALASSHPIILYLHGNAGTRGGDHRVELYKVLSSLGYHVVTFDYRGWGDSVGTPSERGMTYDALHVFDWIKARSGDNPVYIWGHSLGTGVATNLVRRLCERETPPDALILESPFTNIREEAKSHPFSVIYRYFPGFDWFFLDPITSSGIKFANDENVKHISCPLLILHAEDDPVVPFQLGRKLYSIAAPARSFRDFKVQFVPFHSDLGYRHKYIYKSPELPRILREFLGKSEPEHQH
Description: as §1
The ABHD12 activity assay is based on competitive activity-based protein profiling (ABPP) with human ABHD12 overexpressing membrane fractions. Briefly, the membrane proteome (1 mg/ml, 20 µl) was incubated at room temperature with 0.5 µl DMSO (vehicle) or inhibitor for 30 min. Subsequently, the samples were treated with the activity-based probe FP-TAMRA (250 nM, final concentration) for 20 min. The reactions were then quenched by 10 µl sample buffer (×4) (final concentrations: 60 mM Tris, pH 6.8, 2% (w/v) SDS, 10% (v/v) glycerol, 5% (v/v) β-mercaptoethanol, 0.01% (v/v) bromophenol blue). The samples were directly loaded and resolved on SDS-PAGE gel (10% acrylamide), which were then scanned using a ChemiDoc MP system (Cy3 settings, BioRad).

effect on fluorescent signal of AA-HNA hydrolysis by ABHD6 (human ABHD6; 10 µM)	Molecule	activity at 100 µM (human ABHD6) [%]	activity at 100 µM (human MAGL) [%]	activity at 100 µM (human ABHD12) [%]	activity (human ABHD6) [%]	activity (human MAGL) [%]	activity (human ABHD12) [%]
	O=c1c(-c2ccc(O)cc2)coc2c([C@@H]3O[C@H](CO)[C@@H](O)[C@H](O)[C@H]3O)c(O)ccc12 [compound 69, Puerarin]	119	94.8	104			
	CC1(C)[C@@H](O[C@H]2O[C@H](C(=O)O)[C@@H](O)[C@H](O)[C@H]2O[C@@H]2O[C@H](C(=O)O)[C@@H](O)[C@H](O)[C@H]2O)CC[C@]2(C)[C@H]3C(=O)C=C4[C@@H]5C[C@@](C)(C(=O)O)CC[C@]5(C)CC[C@@]4(C)[C@]3(C)CC[C@@H]12 [compound 33, Glycyrrhizin]	92.9	99.5	69.3			
	O=C(O)/C=C/c1ccc(O)c(O)c1 [compound 19, Caffeic Acid]				108	90.1	83.7
	O=C(/C=C/C=C/c1ccc2c(c1)OCO2)N1CCCCC1 [compound 68, Piperine]	112	99.7	90.8			
	C[N+](C)(C)CC(O)CC(=O)O (racemic) [compound 27, DL-Carnitine HCl]				88.9	97.6	76.6
	O=c1cc(-c2ccccc2)oc2cc(O)cc(O)c12 [compound 22, Chrysin]	105	93.2	84			
	COc1ccc(-c2coc3cc(O)ccc3c2=O)cc1 [compound 31, Formononetin]	94.1	103	77.5			
	CC1(C)CC[C@]2(C(=O)O)CC[C@]3(C)C(=CC[C@@H]4[C@@]5(C)CC[C@H](O)C(C)(C)[C@@H]5CC[C@]43C)[C@@H]2C1 [compound 59, Oleanolic Acid]	98.5	130	57.7			
	O=[N+]([O-])c1ncc[nH]1 [compound 13, Azomycin]	112	89.9	87.7			
	C[C@@H]1O[C@@H](O)[C@H](O)[C@H](O)[C@H]1O [compound 45, L-(+)-Rhamnose Monohydrate]				98.8	81.1	80.6
	Methyl-Hesperidin [compound 50]				94.2	62.5	76.8
	Cc1cc(O)c2c(c1)C(=O)c1cc(O)cc(O)c1C2=O [compound 28, Emodin]	87.9	63.2	67.6			
	C=C1C(=O)[C@]23[C@H](O)[C@H]1CC[C@H]2[C@@]12CO[C@]3(O)[C@@H](O)[C@@H]1C(C)(C)CC[C@@H]2O [compound 60, Oridonin]	102	59.6	74.6			
	C[C@H]1[C@@H](O)O[C@@H]2O[C@@]3(C)CC[C@H]4[C@H](C)CC[C@@H]1[C@@]24OO3 [compound 26, Dihydroartemisinin]	89.2	92.5	81.1			
	C[C@@H]1O[C@@H](O[C@H]2[C@H](Oc3cc(O)c4c(c3)O[C@H](c3ccc(O)cc3)CC4=O)O[C@H](CO)[C@@H](O)[C@@H]2O)[C@H](O)[C@H](O)[C@H]1O [compound 55, Naringin]	104	104	81.4			
	C[C@H]1[C@H](C)CC[C@]2(C(=O)O)CC[C@]3(C)C(=CC[C@@H]4[C@@]5(C)C[C@@H](O)[C@H](O)[C@@](C)(CO)[C@@H]5CC[C@]43C)[C@H]12 [compound 12, Asiatic acid]	95.6	86	72.4			
	O=C(CCc1ccc(O)cc1)c1c(O)cc(O)cc1O[C@@H]1O[C@H](CO)[C@@H](O)[C@H](O)[C@H]1O [compound 67, Phlorizin]	116	75.9	96.7			
	COc1cc(/C=C/C(=O)O)ccc1O [compound 32, Ferulic Acid]				92.4	104	80.8
	OC[C@H]1O[C@@H](Oc2ccc(O)cc2)[C@H](O)[C@@H](O)[C@@H]1O [compound 10, Arbutin]	83.2	84.2	66.6			
	O=c1c2ccccc2nc2n1CCc1c-2[nH]c2ccccc12 [compound 71, Rutaecarpine]	111	99.2	97			
	O=C(/C=C/c1ccc(O)c(O)c1)O[C@@H]1C[C@](O)(C(=O)O)C[C@@H](O)[C@H]1O [compound 20, Chlorogenic acid]	102	95.2	78.1			
	COc1ccc(CCC(=O)c2c(O)cc(O[C@@H]3O[C@H](CO)[C@@H](O)[C@H](O)[C@H]3O[C@@H]3O[C@@H](C)[C@H](O)[C@@H](O)[C@H]3O)cc2O)cc1O [compound 56, Neohesperidin dihydrochalcone]	105	87.4	83.1			
blocked	O=C(c1cccc(-c2ccc(-c3cn(C(=O)N4CCCCC4c4ccccc4)nn3)cc2)c1)N1CCCCC1 (stereo not shown) [KT185, reference compound]						
